Measurements reported in article PMC4728427, “Mechanism of allosteric activation of TMEM16A/ANO1 channels by a commonly used chloride channel blocker” (British Journal of Pharmacology, 2016).

Key:
[1] = system: non‐transfected HEK‐293T cells; test: Whole-cell endogenous currents in non-transfected cells with extracellular A9C; type: cell-based; settings: +100 mV, 3000 μM [A9C]ext; without A9C 3.6 ± 0.8
Protocol: Current versus V m relationships were constructed by measuring currents in response to 1 s V m steps (test pulses) from −100 to +100 mV in 40 mV increments (unless stated otherwise) after a 1 s V m step to +70 mV (pre‐pulse). Pulses were elicited every 2 s from a holding V m of 0 mV. Steady‐state currents were measured at the end of the test pulses. As detailed in the Results, in the presence of 300 nM [Ca^2+]i and extracellular A9C, the test‐pulse currents reached a peak within the first ~50 ms of the test pulse. These peak currents were also measured and plotted against the V m of the test pulse. Current density was obtained by dividing the current amplitude for the cell capacitance.
To test the possibility that A9C activated endogenous currents in HEK‐293T cells, the effect of [A9C]ext (3000 μM) on non‐transfected cells was assessed. No significant increase in current was observed relative to the small endogenous currents measured in non‐transfected cells in the absence of [A9C]ext (Figure 1A). For example, at +100 mV, the current recorded from non‐transfected HEK‐293T cells in the absence and presence of 3000 μM [A9C]ext was 3.6 ± 0.8 pA∙pF^−1 (n = 6) and 3.7 ± 0.7 pA∙pF^−1 (n = 6) respectively.

Mouse TMEM16A = biological target: T1, Mouse TMEM16A (Mus musculus, UniProt Q8BHY3); test: Stationary noise analysis of whole-cell TMEM16A currents; type: cell-based; settings: +70 mV, 12.5 μM [Ca2+]i; for P o: control 0.78 ± 0.02
T1 construct: expressed in transfected cells; host or cells: HEK-293T
T1 sequence (Q8BHY3 1-960): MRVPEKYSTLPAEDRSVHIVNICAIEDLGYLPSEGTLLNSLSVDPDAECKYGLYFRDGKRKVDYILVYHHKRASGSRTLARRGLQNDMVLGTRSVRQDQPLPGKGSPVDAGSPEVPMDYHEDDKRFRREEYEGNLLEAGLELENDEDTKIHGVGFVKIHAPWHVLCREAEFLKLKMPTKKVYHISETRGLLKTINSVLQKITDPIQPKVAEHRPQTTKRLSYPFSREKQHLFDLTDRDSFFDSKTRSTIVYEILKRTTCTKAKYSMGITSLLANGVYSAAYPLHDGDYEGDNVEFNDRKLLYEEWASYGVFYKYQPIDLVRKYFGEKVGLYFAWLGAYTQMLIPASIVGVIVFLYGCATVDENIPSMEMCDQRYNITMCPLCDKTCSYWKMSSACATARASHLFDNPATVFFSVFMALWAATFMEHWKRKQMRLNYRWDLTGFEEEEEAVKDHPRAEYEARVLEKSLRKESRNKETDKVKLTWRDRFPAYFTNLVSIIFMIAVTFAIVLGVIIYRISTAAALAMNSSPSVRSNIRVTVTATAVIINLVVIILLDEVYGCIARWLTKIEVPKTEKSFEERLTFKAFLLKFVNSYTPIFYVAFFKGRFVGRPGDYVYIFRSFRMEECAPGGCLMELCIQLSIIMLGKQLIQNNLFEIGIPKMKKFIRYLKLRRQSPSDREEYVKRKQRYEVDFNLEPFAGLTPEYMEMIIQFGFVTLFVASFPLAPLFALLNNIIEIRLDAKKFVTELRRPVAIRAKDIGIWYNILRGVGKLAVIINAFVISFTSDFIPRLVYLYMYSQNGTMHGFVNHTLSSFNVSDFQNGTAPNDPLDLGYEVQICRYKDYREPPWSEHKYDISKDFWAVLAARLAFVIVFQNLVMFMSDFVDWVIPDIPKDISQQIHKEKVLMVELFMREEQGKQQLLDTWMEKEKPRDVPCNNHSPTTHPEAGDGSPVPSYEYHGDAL
Protocol: For non‐stationary noise analysis (Heinemann and Conti, 1992; Tammaro and Ashcroft, 2007), 80–200 identical pulses to a test potential of −70 mV (filtered at 10 kHz and sampled at 50 kHz) were applied, and the mean response, I, was calculated. The variance, σ ^2, was computed from the average squared difference of consecutive traces. Background variance and current at 0 mV were subtracted, and the variance–mean plot was fit by (4) σ^2=iI−I^2/N,
with the single channel current, i, and the number of channels, N, as free parameters.
TMEM16A channels are almost instantaneously activated by changes in V m in the presence of high [Ca^2+]i (12.5 μM) (e.g. Adomaviciene et al., 2013). The lack of slow time‐dependent changes in current amplitude under these conditions makes non‐stationary noise analysis unfeasible. Thus, for experiments carried out in high [Ca^2+]i, stationary noise analysis was performed instead. In the absence or presence of a fixed [A9C]ext, 10 tracts (each 600 ms in duration) of stationary currents measured at +70 mV were low‐pass filtered at 10 kHz and sampled at 50 kHz. For each tract of current, the variance and mean were calculated. The variance–mean plots obtained in the absence and presence of various [A9C]ext were fitted simultaneously with Equation (4).
Stationary noise analysis was used to determine if A9C block manifests as a change in i and/or P o of TMEM16A. Experiments were conducted in the presence of 12.5 μM [Ca^2+]i to enable examination of the effect of A9C block in the absence of A9C‐mediated activation. Mean current and variance were measured in tracts of stationary currents recorded in the absence or presence of different [A9C]ext.
With this assumption in mind, the variance–mean plots were fitted with Equation (4) (Figure 4C). The fits yielded a single value of i of 0.27 ± 0.04 pA (n = 5). P o values arising from the fits were 0.78 ± 0.02 for control (n = 5), 0.30 ± 0.08 at 100 μM [A9C]ext (n = 5) and 0.04 ± 0.01 at 1000 μM [A9C]ext (n = 5) (Figure 4D).

P o (Mouse TMEM16A; 100 μM [A9C]ext): 0.30 ± 0.08
P o (Mouse TMEM16A; 1000 μM [A9C]ext): 0.04 ± 0.01
single channel current i (Mouse TMEM16A; single value from simultaneous fit in absence and presence of [A9C]ext): 0.27 ± 0.04 pA
Compound: O=C(O)c1c2ccccc2cc2ccccc12 [A9C, Anthracene‐9‐carboxylic acid]
current density in non-transfected HEK-293T cells [1]: 3.7 ± 0.7 pA∙pF^−1
